Test results as given in the supplement of paper PMC13207355.

How the values were obtained:
Conditions in all cases: exposure time: 72 h
E13 [1] = patient-derived glioblastoma stem cells of classical subtype; test: surviving fraction (nuclei count normalised to DMSO); higher = more cells surviving (less toxic)
E21 [2] = patient-derived glioblastoma stem cells of mesenchymal subtype; test: as above
E28 [3] = patient-derived glioblastoma stem cells of classical subtype; test: as above
E31 [4] = patient-derived glioblastoma stem cells of proneural subtype; test: as above
E34 [5] = patient-derived glioblastoma stem cells of proneural subtype; test: as above
E57 [6] = patient-derived glioblastoma stem cells of mesenchymal subtype; test: as above
FT3469 [7] = normal neural stem cell line; test: as above
E13 [8] = test: phenotypic distance (Euclidean, principal components) from DMSO controls (arbitrary units); higher = stronger morphological change
E21 [9] = test: as above
E28 [10] = test: as above
E31 [11] = test: as above
E34 [12] = test: as above
E57 [13] = test: as above
FT3469 [14] = test: as above
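Wherever phenotypic distance (Euclidean, principal components) from DMSO controls is given: cell Painting imaging in 384-well plates, CellProfiler features reduced to at least 20 principal components, Euclidean distance versus same-plate DMSO vehicle wells (0.1% v/v), median over six images per well.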
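Wherever surviving fraction (nuclei count normalised to DMSO) is given: nuclei counted by high-content imaging of Hoechst-stained cells in laminin-coated 384-well plates, relative to 0.1% DMSO vehicle wells, with staurosporine as cell-death control.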

O=c1c2ccccc2[se]n1-c1ccccc1 [Ebselen]
Conditions | phenotypic distance | surviving fraction
E13 [1], 4.11523 nM | – | 1.18
E13 [1], 12.34567901 nM | – | 1.04
E13 [1], 37.037 nM | – | 1.05
E13 [1], 111.1111111 nM | – | 1.07
E13 [1], 333.333 nM | – | 1.16
E13 [1], 1000 nM | – | 1.11
E13 [1], 3000 nM | – | 0.579
E13 [8], 4.11523 nM | 0.891 | –
E13 [8], 12.34567901 nM | 0.779 | –
E13 [8], 37.037 nM | 0.477 | –
E13 [8], 111.1111111 nM | 0.532 | –
E13 [8], 333.333 nM | 0.51 | –
E13 [8], 1000 nM | 0.854 | –
E13 [8], 3000 nM | 1.59 | –
E21 [2], 4.11523 nM | – | 1.06
E21 [2], 12.34567901 nM | – | 1.15
E21 [2], 37.037 nM | – | 1.11
E21 [2], 111.1111111 nM | – | 1.08
E21 [2], 333.333 nM | – | 1.1
E21 [2], 1000 nM | – | 1.14
E21 [2], 3000 nM | – | 0.582
E21 [9], 4.11523 nM | 0.63 | –
E21 [9], 12.34567901 nM | 1.29 | –
E21 [9], 37.037 nM | 0.667 | –
E21 [9], 111.1111111 nM | 1.02 | –
E21 [9], 333.333 nM | 0.791 | –
E21 [9], 1000 nM | 0.556 | –
E21 [9], 3000 nM | 1.89 | –
E28 [3], 4.11523 nM | – | 0.974
E28 [3], 12.34567901 nM | – | 1.18
E28 [3], 37.037 nM | – | 1.14
E28 [3], 111.1111111 nM | – | 1.12
E28 [3], 333.333 nM | – | 1.15
E28 [3], 1000 nM | – | 1.1
E28 [3], 3000 nM | – | 0.0788
E28 [10], 4.11523 nM | 0.754 | –
E28 [10], 12.34567901 nM | 1.01 | –
E28 [10], 37.037 nM | 0.601 | –
E28 [10], 111.1111111 nM | 0.529 | –
E28 [10], 333.333 nM | 0.764 | –
E28 [10], 1000 nM | 0.79 | –
E28 [10], 3000 nM | 2.56 | –
E31 [4], 4.11523 nM | – | 0.993
E31 [4], 12.34567901 nM | – | 0.922
E31 [4], 37.037 nM | – | 1.2
E31 [4], 111.1111111 nM | – | 1.12
E31 [4], 333.333 nM | – | 1.13
E31 [4], 1000 nM | – | 0.905
E31 [4], 3000 nM | – | 0.127
E31 [11], 4.11523 nM | 0.71 | –
E31 [11], 12.34567901 nM | 0.778 | –
E31 [11], 37.037 nM | 0.875 | –
E31 [11], 111.1111111 nM | 0.398 | –
E31 [11], 333.333 nM | 0.33 | –
E31 [11], 1000 nM | 0.763 | –
E31 [11], 3000 nM | 3.3 | –
E34 [5], 4.11523 nM | – | 0.901
E34 [5], 12.34567901 nM | – | 1.1
E34 [5], 37.037 nM | – | 0.955
E34 [5], 111.1111111 nM | – | 1
E34 [5], 333.333 nM | – | 1.04
E34 [5], 1000 nM | – | 1.05
E34 [5], 3000 nM | – | 0.512
E34 [12], 4.11523 nM | 0.415 | –
E34 [12], 12.34567901 nM | 0.549 | –
E34 [12], 37.037 nM | 0.806 | –
E34 [12], 111.1111111 nM | 0.859 | –
E34 [12], 333.333 nM | 0.532 | –
E34 [12], 1000 nM | 1.03 | –
E34 [12], 3000 nM | 1.91 | –
E57 [6], 4.11523 nM | – | 1.04
E57 [6], 12.34567901 nM | – | 0.962
E57 [6], 37.037 nM | – | 1.01
E57 [6], 111.1111111 nM | – | 1.05
E57 [6], 333.333 nM | – | 0.995
E57 [6], 1000 nM | – | 1.04
E57 [6], 3000 nM | – | 0.343
E57 [13], 4.11523 nM | 0.316 | –
E57 [13], 12.34567901 nM | 0.564 | –
E57 [13], 37.037 nM | 0.5 | –
E57 [13], 111.1111111 nM | 0.407 | –
E57 [13], 333.333 nM | 0.482 | –
E57 [13], 1000 nM | 1 | –
E57 [13], 3000 nM | 4.42 | –
FT3469 [7], 4.11523 nM | – | 1.14
FT3469 [7], 12.34567901 nM | – | 1.14
FT3469 [7], 37.037 nM | – | 1.11
FT3469 [7], 111.1111111 nM | – | 1.15
FT3469 [7], 333.333 nM | – | 1.32
FT3469 [7], 1000 nM | – | 0.997
FT3469 [7], 3000 nM | – | 0.189
FT3469 [14], 4.11523 nM | 0.678 | –
FT3469 [14], 12.34567901 nM | 0.843 | –
FT3469 [14], 37.037 nM | 0.785 | –
FT3469 [14], 111.1111111 nM | 0.587 | –
FT3469 [14], 333.333 nM | 1.06 | –
FT3469 [14], 1000 nM | 0.639 | –
FT3469 [14], 3000 nM | 4.47 | –

Clc1ccc(COC(Cn2ccnc2)c2ccc(Cl)cc2Cl)cc1 (stereo unspecified) [Econazole nitrate]
Conditions | phenotypic distance | surviving fraction
E13 [1], 4.1 nM | – | 0.964
E13 [1], 12.3 nM | – | 1.05
E13 [1], 37 nM | – | 0.999
E13 [1], 111.1 nM | – | 1.11
E13 [1], 333.3 nM | – | 1.08
E13 [1], 1000 nM | – | 0.997
E13 [1], 3000 nM | – | 0.967
E13 [8], 4.1 nM | 0.86 | –
E13 [8], 12.3 nM | 0.584 | –
E13 [8], 37 nM | 0.567 | –
E13 [8], 111.1 nM | 1.07 | –
E13 [8], 333.3 nM | 1.37 | –
E13 [8], 1000 nM | 0.962 | –
E13 [8], 3000 nM | 1.16 | –
E21 [2], 4.1 nM | – | 1.11
E21 [2], 12.3 nM | – | 0.967
E21 [2], 37 nM | – | 0.99
E21 [2], 111.1 nM | – | 1.03
E21 [2], 333.3 nM | – | 1.01
E21 [2], 1000 nM | – | 1.11
E21 [2], 3000 nM | – | 1.18
E21 [9], 4.1 nM | 0.651 | –
E21 [9], 12.3 nM | 0.516 | –
E21 [9], 37 nM | 0.785 | –
E21 [9], 111.1 nM | 0.844 | –
E21 [9], 333.3 nM | 0.917 | –
E21 [9], 1000 nM | 0.797 | –
E21 [9], 3000 nM | 1.31 | –
E28 [3], 4.1 nM | – | 1.06
E28 [3], 12.3 nM | – | 1.03
E28 [3], 37 nM | – | 1.06
E28 [3], 111.1 nM | – | 0.943
E28 [3], 333.3 nM | – | 1.12
E28 [3], 1000 nM | – | 0.941
E28 [3], 3000 nM | – | 0.965
E28 [10], 4.1 nM | 0.359 | –
E28 [10], 12.3 nM | 0.539 | –
E28 [10], 37 nM | 0.504 | –
E28 [10], 111.1 nM | 0.446 | –
E28 [10], 333.3 nM | 0.803 | –
E28 [10], 1000 nM | 0.72 | –
E28 [10], 3000 nM | 0.946 | –
E31 [4], 4.1 nM | – | 1.03
E31 [4], 12.3 nM | – | 0.985
E31 [4], 37 nM | – | 0.969
E31 [4], 111.1 nM | – | 0.924
E31 [4], 333.3 nM | – | 1.08
E31 [4], 1000 nM | – | 1.17
E31 [4], 3000 nM | – | 1.14
E31 [11], 4.1 nM | 0.819 | –
E31 [11], 12.3 nM | 0.415 | –
E31 [11], 37 nM | 0.765 | –
E31 [11], 111.1 nM | 0.767 | –
E31 [11], 333.3 nM | 0.871 | –
E31 [11], 1000 nM | 1.4 | –
E31 [11], 3000 nM | 1.39 | –
E34 [5], 4.1 nM | – | 0.983
E34 [5], 12.3 nM | – | 1.08
E34 [5], 37 nM | – | 1.01
E34 [5], 111.1 nM | – | 1.17
E34 [5], 333.3 nM | – | 1.03
E34 [5], 1000 nM | – | 1.11
E34 [5], 3000 nM | – | 0.957
E34 [12], 4.1 nM | 0.901 | –
E34 [12], 12.3 nM | 0.505 | –
E34 [12], 37 nM | 0.479 | –
E34 [12], 111.1 nM | 1.39 | –
E34 [12], 333.3 nM | 0.912 | –
E34 [12], 1000 nM | 1.29 | –
E34 [12], 3000 nM | 1.17 | –
E57 [6], 4.1 nM | – | 1.02
E57 [6], 12.3 nM | – | 1.04
E57 [6], 37 nM | – | 1.07
E57 [6], 111.1 nM | – | 1.06
E57 [6], 333.3 nM | – | 1.09
E57 [6], 1000 nM | – | 1.03
E57 [6], 3000 nM | – | 1.05
E57 [13], 4.1 nM | 0.324 | –
E57 [13], 12.3 nM | 0.67 | –
E57 [13], 37 nM | 0.501 | –
E57 [13], 111.1 nM | 0.756 | –
E57 [13], 333.3 nM | 0.858 | –
E57 [13], 1000 nM | 1.1 | –
E57 [13], 3000 nM | 1.45 | –
FT3469 [7], 4.1 nM | – | 0.824
FT3469 [7], 12.3 nM | – | 0.949
FT3469 [7], 37 nM | – | 1.04
FT3469 [7], 111.1 nM | – | 1.03
FT3469 [7], 333.3 nM | – | 0.854
FT3469 [7], 1000 nM | – | 0.902
FT3469 [7], 3000 nM | – | 0.864
FT3469 [14], 4.1 nM | 0.434 | –
FT3469 [14], 12.3 nM | 0.211 | –
FT3469 [14], 37 nM | 0.645 | –
FT3469 [14], 111.1 nM | 0.741 | –
FT3469 [14], 333.3 nM | 0.628 | –
FT3469 [14], 1000 nM | 0.747 | –
FT3469 [14], 3000 nM | 0.632 | –
